The values below are quoted from earlier work in patent publication US12465589B2, “Method and composition for treating CNS disorders” (IGC Pharma IP, LLC, priority 2018, dated 2025).

Data set [1] concerns the target Aβ protein (Homo sapiens, UniProt P05067). The note with it: in vitro.
The test system of data set [2] is AD patients. The note with it: supplementation.
Data set [3] concerns acetylcholinesterase (AChE). The following applies: THC 50 micromolar.
For data set [4] the following is noted: literature reports.

Aβ protein, sequence (P05067 672-713 limits assumed): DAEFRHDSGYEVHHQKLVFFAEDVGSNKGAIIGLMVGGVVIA

As for `COc1cc(/C=C/C(=O)CC(=O)/C=C/c2ccc(O)c(OC)c2)ccc1O` [curcumin], in data set [1], the “aggregation of Aβ” value was “prevent the aggregation of Aβ” and the “binding to Aβ protein” value is recorded as “bind to Aβ protein”.
Turning to `COc1ccc2[nH]cc(CCNC(C)=O)c2c1` [melatonin, N-acetyl-5-methoxytryptamine], in data set [2], the circadian rhythmicity result was “improve circadian rhythmicity” and the memory entry is recorded as “beneficial effects on memory”.
As for `CCCCCc1cc(O)c2c(c1)OC(C)(C)[C@@H]1CCC(C)=C[C@@H]21` [THC, Δ9-tetrahydrocannabinol], in data set [3], the “AChE-induced amyloid β-peptide (Aβ) aggregation” value is listed as “prevents” and the “inhibition of acetylcholinesterase (AChE)” value is recorded as “competitively inhibits”. For the same compound, the “side effects of ingestion” value in data set [4] is “acute psychotic reactions, anxiety, impaired neuropsychological performance, impaired memory, executive functioning disorder, mitochondrial dysfunction, neuron apoptosis”.
